Measured values published in BindingDB's records for doi:10.1021/acs.biochem.5b01128 (University College London, 2016).

Columns and labels:
Test in all cases: Kinase Inhibition Assay
[1] = biological target: Dual specificity protein kinase CLK1 (Homo sapiens, UniProt P49759)
[2] = biological target: Dual specificity protein kinase CLK2 (Homo sapiens, UniProt P49760)
[3] = biological target: Dual specificity protein kinase CLK3 (Homo sapiens, UniProt P49761)
[4] = biological target: Dual specificity tyrosine-phosphorylation-regulated kinase 1A (Homo sapiens, UniProt Q13627)

Chain of Dual specificity protein kinase CLK2 (P49760 whole entry): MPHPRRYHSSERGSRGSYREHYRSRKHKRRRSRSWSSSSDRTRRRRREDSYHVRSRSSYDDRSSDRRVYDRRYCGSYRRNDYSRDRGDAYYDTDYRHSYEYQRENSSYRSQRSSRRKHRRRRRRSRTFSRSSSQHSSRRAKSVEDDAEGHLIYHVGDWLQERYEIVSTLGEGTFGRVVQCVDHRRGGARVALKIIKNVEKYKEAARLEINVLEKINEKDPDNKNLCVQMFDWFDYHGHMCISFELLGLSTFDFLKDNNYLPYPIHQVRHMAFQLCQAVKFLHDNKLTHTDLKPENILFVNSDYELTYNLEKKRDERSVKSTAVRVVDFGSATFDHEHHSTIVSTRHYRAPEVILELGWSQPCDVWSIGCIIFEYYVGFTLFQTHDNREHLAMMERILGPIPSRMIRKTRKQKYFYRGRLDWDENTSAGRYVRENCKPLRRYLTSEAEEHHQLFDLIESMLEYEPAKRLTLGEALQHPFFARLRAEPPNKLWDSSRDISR
Chain of Dual specificity protein kinase CLK3 (P49761 as listed by the source): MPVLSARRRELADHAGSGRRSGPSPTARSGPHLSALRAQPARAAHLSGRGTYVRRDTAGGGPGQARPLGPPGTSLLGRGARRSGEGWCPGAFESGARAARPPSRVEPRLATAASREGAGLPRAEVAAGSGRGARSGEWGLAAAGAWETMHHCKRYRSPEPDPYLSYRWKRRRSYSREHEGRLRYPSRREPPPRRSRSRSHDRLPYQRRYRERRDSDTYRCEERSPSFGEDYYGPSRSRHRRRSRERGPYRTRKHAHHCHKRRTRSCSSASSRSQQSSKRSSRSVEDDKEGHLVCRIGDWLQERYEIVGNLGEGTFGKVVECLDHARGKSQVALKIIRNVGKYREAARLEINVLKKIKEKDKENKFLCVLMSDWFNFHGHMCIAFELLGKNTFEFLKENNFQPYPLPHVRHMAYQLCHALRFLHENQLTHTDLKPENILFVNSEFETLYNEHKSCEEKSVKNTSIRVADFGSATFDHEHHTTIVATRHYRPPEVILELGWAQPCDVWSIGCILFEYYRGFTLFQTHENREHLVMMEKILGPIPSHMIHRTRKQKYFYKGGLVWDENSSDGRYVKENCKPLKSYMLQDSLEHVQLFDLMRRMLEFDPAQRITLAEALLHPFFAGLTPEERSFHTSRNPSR
Chain of Dual specificity protein kinase CLK1 (P49759 whole entry): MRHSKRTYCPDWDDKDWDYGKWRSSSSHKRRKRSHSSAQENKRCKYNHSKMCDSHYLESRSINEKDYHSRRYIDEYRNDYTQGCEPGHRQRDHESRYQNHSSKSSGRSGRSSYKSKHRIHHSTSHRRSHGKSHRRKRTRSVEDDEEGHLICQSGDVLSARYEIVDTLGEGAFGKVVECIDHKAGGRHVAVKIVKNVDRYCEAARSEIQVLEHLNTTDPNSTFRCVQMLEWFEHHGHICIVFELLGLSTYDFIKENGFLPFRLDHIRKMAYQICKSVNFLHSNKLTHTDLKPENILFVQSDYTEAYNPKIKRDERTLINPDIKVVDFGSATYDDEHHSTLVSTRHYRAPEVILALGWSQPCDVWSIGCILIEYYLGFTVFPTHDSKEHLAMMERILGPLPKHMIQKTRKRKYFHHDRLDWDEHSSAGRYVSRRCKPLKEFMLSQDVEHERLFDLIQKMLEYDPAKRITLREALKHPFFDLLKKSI

Compound	IC50 [1]	IC50 [2]	IC50 [3]	IC50 [4]
CSc1nc2ccc3nc(NC(=O)c4ccco4)sc3c2s1 [5E4]	277 nM	174 nM	> 3 µM	334 nM
O=C1N=C(NCc2cccs2)S/C1=C/c1ccc2ncccc2c1 [NR9]	390 nM	553 nM	> 3 µM	
Cc1nc2ccc3sc(NC(=O)c4ccc5ncsc5c4)nc3c2s1 [3A5]	51 nM	68 nM	0.346 µM	260 nM
CSc1nc2ccc3nc(NC(=O)c4ccc(S(=O)(=O)N5CCOCC5)cc4)sc3c2s1 [5F4]	273 nM	127 nM	> 3 µM	213 nM
